In article PMC6897945, “CytA, a reductase in the cytorhodin biosynthesis pathway, inactivates anthracycline drugs in Streptomyces” (Communications Biology, 2019):
Values after ≈ are worked out from the molar mass of the structure shown. Where two headings read alike, the source gives them in different places.

Tests used:
[1] = system: Staphylococcus aureus ATCC 29213; assay: Antibacterial activity, broth dilution MIC; assay type: cell-based
Procedure: (§1) The antibacterial activities of compounds 1–13 were assessed using twofold serial dilutions of antibacterial agents in MH broth, according to previously reported standard methods provided by Clinical and Laboratory Standards Institute (CLSI)[30]. These compounds were tested for their antibacterial activities against Bacillus subtilis BS01, Staphyloccocus aureus ATCC 29213, Staphyloccocus aureus 745524, Bacillus thuringiensis BT01, and Enterococcus faecalis ATCC 29212 using a broth dilution method.

[2] = system: Staphylococcus aureus 745524; assay: Antibacterial activity, broth dilution MIC; assay type: cell-based
Procedure: as §1

[3] = system: B. subtilis BS01; assay: Antibacterial activity, broth dilution MIC; assay type: cell-based; settings: Bacillus subtilis
Procedure: as §1

[4] = system: B. thuringiensis BT01; assay: Antibacterial activity, broth dilution MIC; assay type: cell-based; settings: Bacillus thuringiensis
Procedure: as §1

[5] = system: E. faecalis ATCC 29212; assay: Antibacterial activity, broth dilution MIC; assay type: cell-based; settings: Enterococcus faecalis
Procedure: as §1

[6] = system: HepG2 human hepatocellular carcinoma cell line; assay: Cytotoxic activity, MTT method; assay type: cell-based; settings: HepG2, read-out: Cytotoxic activities IC50, HepG2
From the text: (§2) All data were obtained in triplicate and are presented as means.

[7] = system: RKO human colorectal carcinoma cell line; assay: Cytotoxic activity, MTT method; assay type: cell-based; settings: read-out: Cytotoxic activities IC50, RKO
From the text: as §2

[8] = system: A549 human lung cancer cell line; assay: Cytotoxic activity, MTT method; assay type: cell-based; settings: A549, read-out: Cytotoxic activities IC50, A549
From the text: as §2

[9] = system: MCF-7 human breast adenocarcinoma cell line; assay: Cytotoxic activity, MTT method; assay type: cell-based; settings: MCF7, read-out: Cytotoxic activities IC50, MCF-7
From the text: as §2

[10] = system: MDA-MB-468 human triple negative breast adenocarcinoma cell line; assay: Cytotoxic activity, MTT method; assay type: cell-based; settings: MDA-MB-468, read-out: Cytotoxic activities IC50, MDA-MB-468
From the text: as §2

[11] = Cytotoxic activity, MTT method; assay type: cell-based; settings: human
From the text: as §2

[12] = system: MDA-MB-231 human triple negative breast adenocarcinoma cell line; assay: Cytotoxic activity, MTT method; assay type: cell-based; settings: MDA-MB-231, read-out: Cytotoxic activities IC50, MDA-MB-231
From the text: as §2

[13] = system: HeLa human cervical carcinoma cell line; assay: Cytotoxic activity, MTT method; assay type: cell-based; settings: read-out: Cytotoxic activities IC50, HeLa
From the text: as §2

[14] = system: CytA; assay: Enzyme kinetics of CytA (formation of deglycosylation products, anaerobic); assay type: biochemical, Streptomyces sp. SCSIO 1666; settings: substrate of CytA; 0.5 μM CytA, 20 μM NADH, anaerobic
Procedure: Enzymatic reactions were carried out under anaerobic conditions in an anaerobic workstation (Don Whitley Scientific A45) containing a gas phase of N2/H2/CO2 (80:10: 10%, by vol.). ^1H, ^13C, and 2D (COSY, HMQC, HMBC and NOESY) NMR spectra were recorded at 25 °C with an Avance 700 MHz spectrometer instruments (Bruker). High-resolution mass spectra were obtained with a Maxis quadrupole-time-of-flight mass spectrometer (Bruker).
To validate the in vitro biochemical activities of CytA, we overexpressed and purified this enzyme as a soluble N-terminally His6-tagged protein from E. coli (Fig. 2a). Tris-Cl buffer was made O2 free by boiling, followed by cooling under N2 flow; NADH stock solution (dissolved in Tris-Cl), substrate stock solution (dissolved in DMSO), and enzyme solution (dissolved in Tris-Cl supplemented with 10% glycerin) were subjected to O2 eliminating process in the anaerobic workstations for at least two cycles (40 min for one cycle). CytA enzymatic activity was tested in 50 μL volume containing 50 mM Tris-Cl (pH 8.0), 25 μM substrate, 0.5 μM CytA, and 20 μM NADH, at 37 °C for 30 min. The reaction was quenched with the addition to 2 volumes MeOH. After centrifugation to remove protein, supernatants were analyzed with Agilent HPLC equipment using a Phenomenex Prodigy ODS column S5 (150 × 4.60 mm, 5 μ) and UV detection at 254 and 500 nm. Samples were eluted with a gradient elution of phase A containing 0.1% TFA in ddH2O and phase B containing 100% acetonitrile, at a flow rate of 1 mL/min.
Kinetic analyses of CytA with putative substrates 6–10, daunorubicin, doxorubicin, idarubicin, epirubicin and pirarubicin, involved a reaction volume of 20 μL consisting of 50 mM Tris-Cl (pH 8.0), 0.5 μM CytA, 20 μM NADH, […]
All assays were performed in triplicate and Km and Vmax values were calculated on the basis of curve fitting to the Michaelis-Menten equation: v = Vmax *[S]/(Km + [S]) (Supplementary Fig. 7).
For kinetics of CytA, Origin 9.0 (OriginLab Co.) was used to analyze on the basis of curve fitting to the Michaelis-Menten equation. Experiments were performed in triplicate independently. For antibacterial activity, experiments were performed in triplicate using 96-well plates.

[15] = ATCC29213, Staphylococcus aureus ATCC 29213, triplicate, read-out: MIC values, SA1
[16] = Staphylococcus aureus 745524, triplicate, read-out: MIC values, SA2
[17] = B. subtilis BS01, triplicate, read-out: MIC values, BS
[18] = B. thuringiensis BT01, triplicate, read-out: MIC values, BT
[19] = ATCC29212, E. faecalis ATCC 29212, triplicate, read-out: MIC values, EF
[20] = Staphylococcus aureus, ATCC29213, read-out: MIC values, SA1
[21] = Staphylococcus aureus, 745524, read-out: MIC values, SA2
[22] = ATCC29212, read-out: MIC values, EF
[23] = Huvec-12 normal cell line, read-out: Cytotoxic activities IC50, Huvec-12
[24] = L02 normal cell line, read-out: Cytotoxic activities IC50, L02

Compound	MIC [1, 15]	MIC [2, 16]	MIC [3, 17]	MIC [4, 18]	MIC [5, 19]	IC50 [6]	IC50 [7]	IC50 [8]	IC50 [9]	IC50 [10]	IC50 [11, 23]	IC50 [11, 24]	IC50 [12]	IC50 [13]	Km [14]	kcat [14]	also measured
CC1(C)S[C@@H]2[C@H](NC(=O)[C@H](N)c3ccccc3)C(=O)N2[C@H]1C(=O)O [Amp, Ampicillin, reference compound]	4 µg/mL (≈ 11.4 µM)	8 µg/mL (≈ 22.9 µM)	4 µg/mL (≈ 11.4 µM)	4 µg/mL (≈ 11.4 µM)	2 µg/mL (≈ 5.72 µM)	–	–	–	–	–	–	–	–	–	–	–	–
CC[C@@]1(O[C@H]2C[C@H](N(C)C)[C@H](O)[C@H](C)O2)CCc2c(O)c3c(c(O)c2[C@H]1O[C@H]1C[C@H](N(C)C)[C@H](O[C@H]2CC[C@H](O[C@H]4CC[C@H](O)[C@H](C)O4)[C@H](C)O2)[C@H](C)O1)C(=O)c1cccc(O)c1C3=O [Compound 1, cytorhodin X]	–	–	–	–	–	3.04 µM	11.2 µM	3.4 µM	12.7 µM	21.3 µM	4.23 µM	3.5 µM	18.7 µM	2.04 µM	–	–	MIC [1, 20]: 2 µg/mL (≈ 2.19 µM); MIC [2, 21]: 2 µg/mL (≈ 2.19 µM); MIC ([3]; BS01, read-out: MIC values, BS): 2 µg/mL (≈ 2.19 µM); MIC ([4]; BT01, read-out: MIC values, BT): 4 µg/mL (≈ 4.38 µM); MIC [5, 22]: 2 µg/mL (≈ 2.19 µM)
CC[C@@]1(O)CCc2c(O)c3c(c(O)c2[C@H]1O)C(=O)c1cccc(O)c1C3=O [Compound 13]	> 32 µg/mL	> 32 µg/mL	> 32 µg/mL	> 32 µg/mL	> 32 µg/mL	–	–	–	–	–	–	–	–	–	–	–	–
CC[C@@]1(O)CCc2c(O)c3c(c(O)c2C1)C(=O)c1cccc(O)c1C3=O [Compound 12]	> 32 µg/mL	> 32 µg/mL	> 32 µg/mL	> 32 µg/mL	> 32 µg/mL	–	–	–	–	–	–	–	–	–	–	–	–
COc1cccc2c1C(=O)c1c(O)c3c(c(O)c1C2=O)C[C@@](O)(C(=O)CO)C[C@@H]3O[C@H]1C[C@H](N)[C@H](O[C@@H]2CCCCO2)[C@H](C)O1 [Compound 26, pirarubicin, reference compound]	–	–	–	–	–	–	–	–	–	–	–	–	–	–	49.3 µM	0.0123 s⁻¹	–
CC[C@]1(O)Cc2c(O)c3c(c(O)c2[C@@H](O[C@H]2C[C@H](N(C)C)[C@H](O)[C@H](C)O2)C1)C(=O)c1c(O)cccc1C3=O [Compound 8, 10-decarbomethoxy-ε-rhodomycin]	4 µg/mL (≈ 7.58 µM)	8 µg/mL (≈ 15.2 µM)	8 µg/mL (≈ 15.2 µM)	8 µg/mL (≈ 15.2 µM)	4 µg/mL (≈ 7.58 µM)	1.99 µM	3.28 µM	6.24 µM	21.1 µM	16.8 µM	6.92 µM	19.8 µM	7.65 µM	1.31 µM	12.7 µM	0.00283 s⁻¹	–
CC[C@@]1(O)CCc2c(O)c3c(c(O)c2[C@H]1O[C@H]1C[C@H](N(C)C)[C@H](O)[C@H](C)O1)C(=O)c1cccc(O)c1C3=O [Compound 5, iremycin]	–	–	–	–	–	10.2 µM	15.2 µM	11.8 µM	10.7 µM	29.3 µM	13.5 µM	6.93 µM	20.3 µM	9.99 µM	–	–	MIC [1, 20]: 8 µg/mL (≈ 15.2 µM); MIC [2, 21]: 8 µg/mL (≈ 15.2 µM); MIC ([3]; BS01, read-out: MIC values, BS): 8 µg/mL (≈ 15.2 µM); MIC ([4]; BT01, read-out: MIC values, BT): 16 µg/mL (≈ 30.3 µM); MIC [5, 22]: 8 µg/mL (≈ 15.2 µM)
COc1cccc2c1C(=O)c1c(O)c3c(c(O)c1C2=O)C[C@@](O)(C(=O)CO)C[C@@H]3O[C@H]1C[C@H](N)[C@H](O)[C@H](C)O1 [Compound 23, doxorubicin, reference compound]	–	–	–	–	–	0.41 µM	1.45 µM	2.31 µM	0.9 µM	2.11 µM	–	–	16.9 µM	0.83 µM	31 µM	0.0102 s⁻¹	IC50 ([11]; Huvec-12 normal umbilical vein endothelial cells, Huvec-12 normal cell line, read-out: Cytotoxic activities IC50, Huvec-12): 6.31 µM; IC50 ([11]; L02 normal hepatic cells, L02 normal cell line, read-out: Cytotoxic activities IC50, L02): 7.67 µM
COc1cccc2c1C(=O)c1c(O)c3c(c(O)c1C2=O)C[C@@](O)(C(=O)CO)C[C@@H]3O[C@H]1C[C@H](N)[C@@H](O)[C@H](C)O1 [Compound 25, epirubicin, reference compound]	–	–	–	–	–	–	–	–	–	–	–	–	–	–	38.6 µM	0.00883 s⁻¹	–
COc1cccc2c1C(=O)c1c(O)c3c(c(O)c1C2=O)C[C@@](O)(C(C)=O)C[C@@H]3O[C@H]1C[C@H](N)[C@H](O)[C@H](C)O1 [Compound 22, daunorubicin, reference compound]	–	–	–	–	–	–	–	–	–	–	–	–	–	–	36.3 µM	0.00967 s⁻¹	–
CC[C@@]1(O)CCc2c(O)c3c(c(O)c2[C@H]1O[C@H]1C[C@H](N(C)C)[C@H](O[C@H]2CC[C@H](O[C@H]4CC[C@H](O)[C@H](C)O4)[C@H](C)O2)[C@H](C)O1)C(=O)c1cccc(O)c1C3=O [Compound 3, cosmomycin A]	0.25 µg/mL (≈ 0.331 µM)	0.125 µg/mL (≈ 0.165 µM)	0.5 µg/mL (≈ 0.661 µM)	0.25 µg/mL (≈ 0.331 µM)	0.06 µg/mL (≈ 0.0794 µM)	0.023 µM	0.083 µM	0.032 µM	0.82 µM	0.81 µM	0.31 µM	0.42 µM	1.36 µM	0.15 µM	–	–	–
CC(=O)[C@]1(O)Cc2c(O)c3c(c(O)c2[C@@H](O[C@H]2C[C@H](N)[C@H](O)[C@H](C)O2)C1)C(=O)c1ccccc1C3=O [Compound 24, idarubicin, reference compound]	–	–	–	–	–	–	–	–	–	–	–	–	–	–	28.5 µM	0.00733 s⁻¹	–
CC[C@@]1(O[C@H]2C[C@H](N(C)C)[C@H](O)[C@H](C)O2)CCc2c(O)c3c(c(O)c2[C@H]1O[C@H]1C[C@H](N(C)C)[C@H](O[C@H]2C[C@H](O)[C@H](O[C@H]4CC[C@H](O)[C@H](C)O4)[C@H](C)O2)[C@H](C)O1)C(=O)c1cccc(O)c1C3=O [Compound 2, cytorhodin Y]	2 µg/mL (≈ 2.15 µM)	1 µg/mL (≈ 1.08 µM)	1 µg/mL (≈ 1.08 µM)	4 µg/mL (≈ 4.31 µM)	4 µg/mL (≈ 4.31 µM)	6.17 µM	11.8 µM	7.25 µM	9.89 µM	16.4 µM	4.71 µM	4.46 µM	17.5 µM	3.25 µM	–	–	–
CN[C@H](CC(C)C)C(=O)N[C@H]1C(=O)N[C@@H](CC(N)=O)C(=O)N[C@H]2C(=O)N[C@H]3C(=O)N[C@H](C(=O)N[C@H](C(=O)O)c4cc(O)cc(O)c4-c4cc3ccc4O)[C@H](O)c3ccc(c(Cl)c3)Oc3cc2cc(c3O[C@@H]2O[C@H](CO)[C@@H](O)[C@H](O)[C@H]2O[C@H]2C[C@](C)(N)[C@H](O)[C@H](C)O2)Oc2ccc(cc2Cl)[C@H]1O [Van, Vancomycin, reference compound]	–	–	–	–	–	–	–	–	–	–	–	–	–	–	–	–	MIC [1, 20]: 0.5 µg/mL (≈ 0.345 µM); MIC [2, 21]: 1 µg/mL (≈ 0.69 µM); MIC ([3]; BS01, read-out: MIC values, BS): 0.5 µg/mL (≈ 0.345 µM); MIC ([4]; BT01, read-out: MIC values, BT): 0.5 µg/mL (≈ 0.345 µM); MIC [5, 22]: 0.25 µg/mL (≈ 0.173 µM)
